Molecular target: T1, F508delCFTR (Homo sapiens, UniProt P13569, DEL508-508)
T1 construct: expressed in transfected cells; host or cells: CFBE41o- (human lung derived epithelial cell line), doxycycline-inducible
Test: Cell Surface Expression-Horse Radish Peroxidase (CSE-HRP) assay
Type: cell-based
Settings: CFBE41o-F508delCFTR-HRP cells; for EC50: F508delCFTR cell surface expression, luminescence, 18-24 hours at 33° C., highest concentration 20 μM; for Maximum % activity: maximum at any tested concentration, normalized to on-plate positive control (3 μM)
Text: Cell Surface Expression-Horse Radish Peroxidase (CSE-HRP) Assay:
A cellular assay for measuring the F508delCFTR cell surface expression after correction with test compounds was developed in human lung derived epithelial cell line (CFBE41o-) (Veit G et al, (2012) Mol Biol Cell. 23(21): 4188-4202). This was achieved by expressing the F508delCFTR mutation along with a horseradish peroxidase (HRP) in the fourth exofacial loop and then measuring the HRP activity using luminescence readout from these cells, CFBE41o-F508delCFTR-HRP, that were incubated overnight with the test corrector compounds. Briefly, for this primary assay, the CFBE41o-F508delCFTR-HRP cells were plated in 384-well plates (Greiner Bio-one; Cat 781080) at 4,000 cells/well along with 0.5 μg/mL doxycycline to induce the F508delCFTR-HRP expression and further incubated at 37° C., 5% CO2 for 72 hours. The test compounds were then added at the required concentrations and further incubated for 18-24 hours at 33° C. The highest concentration tested was 20 μM with an 8-point concentration response curve using a 3-fold dilution. Three replicate plates were run to determine one EC50. All plates contained negative controls (dimethyl sulfoxide, DMSO) and positive controls (3 μM of 3-[(2R,4R)-4-({[1-(2,2-difluoro-1,3-benzodioxol-5-yl)cyclopropyl]carbonyl}amino)-7-methoxy-3,4-dihydro-2H-chromen-2-yl]benzoic acid) as well as on-plate concentration response of the positive control. Post incubation, the plates were washed 5× times with Dulbecco's phosphate buffered saline (DPBS), followed by the addition of the HRP substrate, luminol (50 μL), and measuring the HRP activity using luminescence readout on EnVision® Multilabel Plate Reader (Perkin Elmer; product number 2104-0010). The raw counts from the experiment are analyzed using Accelrys® Assay Explorer v3.3.
Z′ greater than 0.5 was used as passing quality control criteria for the plates.
The Z′ is defined as: 1−[3*SDPositive Control+3*SDNegative Control/Absolute(MeanPositive Control−MeanNegative Control)] wherein “SD” is standard deviation.
The % activity measured at each of the 8 test concentrations of the test compound was normalized to the on-plate positive control using the following formula: % activity=[(test compound response−DMSO response)/(positive control response−DMSO response)]*100
The maximum % activity achieved for the test compound at any tested concentration is presented in Table 1 along with the EC50 calculated using the following general sigmoidal curve with variable Hill slope equation (described as Model 42 in the Accelrys® Assay Explorer v3.3 software): y=(a−d)/(1+(x/c)^b)+d
General sigmoidal curve with concentration, response, top, bottom, EC50 and Hill slope.
This model describes a sigmoidal curve with an adjustable baseline, a. The equation can be used to fit curves where response is either increasing or decreasing with respect to the independent variable, “x”. • “x” is a concentration of drug under test. • “y” is the response. • “a” is the maximum response, and “d” is the minimum response • “c” is the inflection point (EC50) for the curve. That is, “y” is halfway between the lower and upper asymptotes when x=c. • “b” is the slope-factor or Hill coefficient. The sign of b is positive when the response increases with increasing dose and is negative when the response decreases with increasing dose (inhibition).

T1 sequence (P13569 with tags, fused parts or gaps DEL508-508): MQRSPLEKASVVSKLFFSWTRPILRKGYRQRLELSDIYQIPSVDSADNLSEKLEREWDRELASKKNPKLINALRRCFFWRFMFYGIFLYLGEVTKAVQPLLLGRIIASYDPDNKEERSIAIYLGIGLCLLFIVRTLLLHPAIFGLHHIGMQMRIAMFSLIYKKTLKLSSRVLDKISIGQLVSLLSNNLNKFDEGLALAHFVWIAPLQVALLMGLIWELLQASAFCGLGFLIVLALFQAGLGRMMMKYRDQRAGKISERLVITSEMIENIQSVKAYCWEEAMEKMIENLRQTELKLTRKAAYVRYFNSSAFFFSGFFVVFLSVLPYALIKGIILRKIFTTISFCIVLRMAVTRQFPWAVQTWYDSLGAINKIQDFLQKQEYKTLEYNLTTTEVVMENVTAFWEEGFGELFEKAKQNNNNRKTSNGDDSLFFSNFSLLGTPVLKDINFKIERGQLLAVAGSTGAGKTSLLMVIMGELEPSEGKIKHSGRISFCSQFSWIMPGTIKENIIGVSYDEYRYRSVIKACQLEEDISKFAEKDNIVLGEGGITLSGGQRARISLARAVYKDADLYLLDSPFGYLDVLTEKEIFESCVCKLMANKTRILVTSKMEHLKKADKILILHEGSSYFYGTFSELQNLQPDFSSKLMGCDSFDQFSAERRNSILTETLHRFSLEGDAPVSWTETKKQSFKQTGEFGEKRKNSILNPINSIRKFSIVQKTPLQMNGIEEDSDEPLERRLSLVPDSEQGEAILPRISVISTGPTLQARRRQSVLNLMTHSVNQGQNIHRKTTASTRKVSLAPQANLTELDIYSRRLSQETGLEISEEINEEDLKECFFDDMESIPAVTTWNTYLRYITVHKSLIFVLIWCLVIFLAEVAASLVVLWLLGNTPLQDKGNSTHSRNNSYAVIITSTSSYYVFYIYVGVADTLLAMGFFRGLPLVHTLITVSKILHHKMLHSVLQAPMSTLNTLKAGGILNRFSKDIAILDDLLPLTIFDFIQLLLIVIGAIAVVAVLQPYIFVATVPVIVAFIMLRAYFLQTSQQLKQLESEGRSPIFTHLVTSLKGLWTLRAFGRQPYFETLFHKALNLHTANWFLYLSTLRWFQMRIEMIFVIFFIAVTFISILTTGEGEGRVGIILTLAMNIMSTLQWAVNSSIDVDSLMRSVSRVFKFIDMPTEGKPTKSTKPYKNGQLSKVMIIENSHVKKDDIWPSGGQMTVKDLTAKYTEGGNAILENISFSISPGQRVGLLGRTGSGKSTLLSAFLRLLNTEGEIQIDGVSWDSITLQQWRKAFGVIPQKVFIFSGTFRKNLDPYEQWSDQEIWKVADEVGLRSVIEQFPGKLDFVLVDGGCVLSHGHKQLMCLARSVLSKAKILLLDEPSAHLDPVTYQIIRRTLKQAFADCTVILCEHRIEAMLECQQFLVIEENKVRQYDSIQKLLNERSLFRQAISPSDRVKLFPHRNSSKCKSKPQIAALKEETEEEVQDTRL

COc1ccc2c(c1)O[C@@H](c1ccc(C(=O)O)cc1)C[C@H]2NC(=O)C1(c2ccc(F)cc2)CC1 [Example 84, 4-[(2R,4R)-4-{[1-(4-fluorophenyl)cyclopropane-1-carbonyl]amino}-7-methoxy-3,4-dihydro-2H-1-benzopyran-2-yl]benzoic acid]
EC50: 560 nM
Maximum % activity: 56.2%

COc1ccc(C(C)(C)C(=O)N[C@@H]2C[C@H](c3ccc(C(=O)O)cc3)Oc3cc(OC)ccc32)c(F)c1 [Example 117, 4-{(2R,4R)-4-[2-(2-fluoro-4-methoxyphenyl)-2-methylpropanamido]-7-methoxy-3,4-dihydro-2H-1-benzopyran-2-yl}benzoic acid]
EC50: 350 nM
Maximum % activity: 47.0%

COc1ccc2c(c1)O[C@@H](c1ccc(C(=O)O)cc1)C[C@H]2NC(=O)C1(c2cccc(F)c2)CC1 [Example 85, 4-[(2R,4R)-4-{[1-(3-fluorophenyl)cyclopropane-1-carbonyl]amino}-7-methoxy-3,4-dihydro-2H-1-benzopyran-2-yl]benzoic acid]
EC50: 720 nM
Maximum % activity: 50.4%

COc1ccc2c(c1)O[C@@H](c1ccc(C(=O)O)cc1)C[C@H]2NC(=O)C(C)(C)Oc1ccc(F)cc1 [Example 118, 4-{(2R,4R)-4-[2-(4-fluorophenoxy)-2-methylpropanamido]-7-methoxy-3,4-dihydro-2H-1-benzopyran-2-yl}benzoic acid]
EC50: > 20000 nM
Maximum % activity: 16.3%

COc1ccc2c(c1)O[C@@H](c1ccc(C(=O)O)cc1)C[C@H]2NC(=O)C1(c2ccccc2)CCC1 [Example 102, 4-{(2R,4R)-7-methoxy-4-[(1-phenylcyclobutane-1-carbonyl)amino]-3,4-dihydro-2H-1-benzopyran-2-yl}benzoic acid]
EC50: > 20000 nM
Maximum % activity: 18.1%

COc1ccc2c(c1)O[C@@H](c1ccc(C(=O)O)cc1)C[C@H]2NC(=O)C(C)(C)Oc1ccc(Cl)cc1 [Example 119, 4-{(2R,4R)-4-[2-(4-chlorophenoxy)-2-methylpropanamido]-7-methoxy-3,4-dihydro-2H-1-benzopyran-2-yl}benzoic acid]
EC50: 2980 nM
Maximum % activity: 27.4%

COc1ccc2c(c1)O[C@@H](c1ccc(C(=O)O)cc1)C[C@H]2NC(=O)C(C)(C)Oc1ccc2c(c1)OCO2 [Example 99, 4-[(2R,4R)-4-{2-[(2H-1,3-benzodioxol-5-yl)oxy]-2-methylpropanamido}-7-methoxy-3,4-dihydro-2H-1-benzopyran-2-yl]benzoic acid]
EC50: > 20000 nM
Maximum % activity: 15.9%

COc1ccc2c(c1)O[C@@H](c1ccc(C(=O)O)cc1)C[C@H]2NC(=O)C(C)(C)Oc1cccc(Cl)c1 [Example 73, 4-{(2R,4R)-4-[2-(3-chlorophenoxy)-2-methylpropanamido]-7-methoxy-3,4-dihydro-2H-1-benzopyran-2-yl}benzoic acid]
EC50: 1840 nM
Maximum % activity: 29.0%

COc1ccc2c(c1)O[C@@H](c1ccc(C(=O)O)cc1)C[C@H]2NC(=O)C(C)(C)c1ccc2c(c1)OC(F)(F)O2 [Example 1, 4-{(2R,4R)-4-[2-(2,2-difluoro-2H-1,3-benzodioxol-5-yl)-2-methylpropanamido]-7-methoxy-3,4-dihydro-2H-1-benzopyran-2-yl}benzoic acid]
EC50: 550 nM
Maximum % activity: 110.0%

COC(=O)c1cccc([C@H]2C[C@@H](NC(=O)C3(C)CCc4cc(C)ccc43)c3ccc(OC)cc3O2)c1 (mixture of isomers) [Example 123, methyl 3-{(2R,4R)-4-[(1,5-dimethyl-2,3-dihydro-1H-indene-1-carbonyl)amino]-7-methoxy-3,4-dihydro-2H-1-benzopyran-2-yl}benzoate]
EC50: 450 nM
Maximum % activity: 80.8%

COc1ccc2c(c1)OCC2(C)C(=O)N[C@@H]1C[C@H](c2cccc(C(=O)O)c2)Oc2ccccc21 (stereo partly drawn) [Example 56, 3-{(2R,4R)-4-[(6-methoxy-3-methyl-2,3-dihydro-1-benzofuran-3-carbonyl)amino]-3,4-dihydro-2H-1-benzopyran-2-yl}benzoic acid]
EC50: 1300 nM
Maximum % activity: 71.4%

CC(C)(C(=O)N[C@@H]1C[C@H](c2cccc(C(=O)O)c2)Oc2ccccc21)c1ccc(C(F)(F)F)cc1 [Example 51, 3-[(2R,4R)-4-{2-methyl-2-[4-(trifluoromethyl)phenyl]propanamido}-3,4-dihydro-2H-1-benzopyran-2-yl]benzoic acid]
EC50: 2030 nM
Maximum % activity: 57.9%

C[C@@]1(C(=O)N[C@@H]2C[C@H](c3cccc(C(=O)O)c3)Oc3ccccc32)CCc2cc(Cl)ccc2O1 [Example 64, 3-[(2R,4R)-4-{[(2S)-6-chloro-2-methyl-3,4-dihydro-2H-1-benzopyran-2-carbonyl]amino}-3,4-dihydro-2H-1-benzopyran-2-yl]benzoic acid]
EC50: > 20000 nM
Maximum % activity: 18.0%

COc1ccc2c(c1)O[C@@H](c1ccc(C(=O)O)cc1)C[C@H]2NC(=O)C1(c2ccccc2F)CCCC1 [Example 91, 4-[(2R,4R)-4-{[1-(2-fluorophenyl)cyclopentane-1-carbonyl]amino}-7-methoxy-3,4-dihydro-2H-1-benzopyran-2-yl]benzoic acid]
EC50: > 20000 nM
Maximum % activity: 5.0%

COc1ccc2c(c1)O[C@@H](c1ccc(C(=O)O)cc1)C[C@H]2NC(=O)[C@@]1(C)CCc2cc(Cl)ccc2O1 [Example 67, 4-[(2R,4R)-4-{[(2R)-6-chloro-2-methyl-3,4-dihydro-2H-1-benzopyran-2-carbonyl]amino}-7-methoxy-3,4-dihydro-2H-1-benzopyran-2-yl]benzoic acid]
EC50: > 20000 nM
Maximum % activity: 4.7%

COc1ccc2c(c1)OC(c1ccc(OC)c(OC)c1)CC2NC(=O)C1(c2cccc(F)c2)CC1 (stereo not shown) [Example 19, N-[2-(3,4-dimethoxyphenyl)-7-methoxy-3,4-dihydro-2H-1-benzopyran-4-yl]-1-(3-fluorophenyl)cyclopropane-1-carb oxamide]
EC50: 1270 nM
Maximum % activity: 40.8%

COc1ccc2c(c1)CC[C@]2(C)C(=O)N[C@@H]1C[C@H](c2ccc(C(=O)O)cc2)Oc2cc(OC)ccc21 [Example 69, 4-[(2R,4R)-7-methoxy-4-{[(1S)-5-methoxy-1-methyl-2,3-dihydro-1H-indene-1-carbonyl]amino}-3,4-dihydro-2H-1-benzopyran-2-yl]benzoic acid]
EC50: 100 nM
Maximum % activity: 66.1%

COc1ccc2c(c1)O[C@@H](c1ccc(C(=O)O)cc1)C[C@H]2NC(=O)C1(c2ccc(C(F)(F)F)cc2)CC1 [Example 5, 4-[(2R,4R)-7-methoxy-4-({1-[4-(trifluoromethyl)phenyl]cyclopropane-1-carbonyl}amino)-3,4-dihydro-2H-1-benzopyran-2-yl]benzoic acid]
EC50: 210 nM
Maximum % activity: 120.0%

COc1ccc(C2(C(=O)N[C@@H]3C[C@H](c4ccc(C(=O)O)cc4)Oc4cc(OC)ccc43)CCC2)cc1 [Example 115, 4-[(2R,4R)-7-methoxy-4-{[1-(4-methoxyphenyl)cyclobutane-1-carbonyl]amino}-3,4-dihydro-2H-1-benzopyran-2-yl]benzoic acid]
EC50: 630 nM
Maximum % activity: 69.8%

COc1ccc2c(c1)O[C@@H](c1cccc(C(=O)O)c1)C[C@H]2NC(=O)C1(C)CCc2cc(C)ccc21 (stereo partly drawn) [Example 122, 3-{(2R,4R)-4-[(1,5-dimethyl-2,3-dihydro-1H-indene-1-carbonyl)amino]-7-methoxy-3,4-dihydro-2H-1-benzopyran-2-yl}benzoic acid]
EC50: 310 nM
Maximum % activity: 86.2%

— patent US10118916B2, “Modulators of cystic fibrosis transmembrane conductance regulator protein” (AbbVie S.à.r.l., priority 2016, dated 2018)
